Data taken from patent publication US20230416203A1, “POTENT AND SELECTIVE INHIBITORS OF THE CALCIUM-ACTIVATED POTASSIUM CHANNEL, KCA3.1, FOR USE AS PLATFORM THERAPEUTICS” (priority 2020, published 2023).
Read-outs that look alike come from different tables or passages of the source.

What was measured:
KCa3.1 channel = KCa3.1 channel (Homo sapiens, UniProt O15554); test: KCa3.1 patch-clamp (QPatch HTX automated and manual); format: cell-based
Experimental: The effect of the compounds on KCa3.1 channel was evaluated by patch-clamp using a QPatch HTX automated electrophysiology platform (Sophion, Denmark) and by manual patch-clamp (HEKA, Germany). For QPatch experiments, the giga-seal and whole-cell requirements for the automated electrophysiology were the following: minimum seal resistance=0.1 GQ; holding potential=−80 mV; holding pressure=−20 mbar; and positioning pressure=−70 mbar. For KCa3.1 experiment, the external solution was Na^+-Ringer's and contained (in mM): 160 NaCl; 10 HEPES; 4.5 KCl; 1 MgCl2; and 2 CaCl2 (pH=7.4, 310 mOsm). […] Following establishment of the whole-cell configuration, cells were held at −80 mV and KCa3.1 currents elicited by a voltage protocol that held at −80 mV for 20 ms, stepped to −120 mV for 20 ms, ramped from −120 to +40 mV over 200 ms, and then stepped back to −120 mV for 20 ms. This pulse protocol was applied every 10 s. Current slopes (in amperes per second) were measured using the Sophion QPatch software and exported to Microsoft Excel and GraphPad Prism 7 for analysis. […] Curve-fitting and IC50 determination were performed using GraphPad Prism software.

[1] = molecular target: CaV1.2 channel over KCa3.1 (Homo sapiens, UniProt Q13936); test: in vitro; conditions: pH 7.4
Chain of CaV1.2 channel over KCa3.1 (Q13936 whole entry): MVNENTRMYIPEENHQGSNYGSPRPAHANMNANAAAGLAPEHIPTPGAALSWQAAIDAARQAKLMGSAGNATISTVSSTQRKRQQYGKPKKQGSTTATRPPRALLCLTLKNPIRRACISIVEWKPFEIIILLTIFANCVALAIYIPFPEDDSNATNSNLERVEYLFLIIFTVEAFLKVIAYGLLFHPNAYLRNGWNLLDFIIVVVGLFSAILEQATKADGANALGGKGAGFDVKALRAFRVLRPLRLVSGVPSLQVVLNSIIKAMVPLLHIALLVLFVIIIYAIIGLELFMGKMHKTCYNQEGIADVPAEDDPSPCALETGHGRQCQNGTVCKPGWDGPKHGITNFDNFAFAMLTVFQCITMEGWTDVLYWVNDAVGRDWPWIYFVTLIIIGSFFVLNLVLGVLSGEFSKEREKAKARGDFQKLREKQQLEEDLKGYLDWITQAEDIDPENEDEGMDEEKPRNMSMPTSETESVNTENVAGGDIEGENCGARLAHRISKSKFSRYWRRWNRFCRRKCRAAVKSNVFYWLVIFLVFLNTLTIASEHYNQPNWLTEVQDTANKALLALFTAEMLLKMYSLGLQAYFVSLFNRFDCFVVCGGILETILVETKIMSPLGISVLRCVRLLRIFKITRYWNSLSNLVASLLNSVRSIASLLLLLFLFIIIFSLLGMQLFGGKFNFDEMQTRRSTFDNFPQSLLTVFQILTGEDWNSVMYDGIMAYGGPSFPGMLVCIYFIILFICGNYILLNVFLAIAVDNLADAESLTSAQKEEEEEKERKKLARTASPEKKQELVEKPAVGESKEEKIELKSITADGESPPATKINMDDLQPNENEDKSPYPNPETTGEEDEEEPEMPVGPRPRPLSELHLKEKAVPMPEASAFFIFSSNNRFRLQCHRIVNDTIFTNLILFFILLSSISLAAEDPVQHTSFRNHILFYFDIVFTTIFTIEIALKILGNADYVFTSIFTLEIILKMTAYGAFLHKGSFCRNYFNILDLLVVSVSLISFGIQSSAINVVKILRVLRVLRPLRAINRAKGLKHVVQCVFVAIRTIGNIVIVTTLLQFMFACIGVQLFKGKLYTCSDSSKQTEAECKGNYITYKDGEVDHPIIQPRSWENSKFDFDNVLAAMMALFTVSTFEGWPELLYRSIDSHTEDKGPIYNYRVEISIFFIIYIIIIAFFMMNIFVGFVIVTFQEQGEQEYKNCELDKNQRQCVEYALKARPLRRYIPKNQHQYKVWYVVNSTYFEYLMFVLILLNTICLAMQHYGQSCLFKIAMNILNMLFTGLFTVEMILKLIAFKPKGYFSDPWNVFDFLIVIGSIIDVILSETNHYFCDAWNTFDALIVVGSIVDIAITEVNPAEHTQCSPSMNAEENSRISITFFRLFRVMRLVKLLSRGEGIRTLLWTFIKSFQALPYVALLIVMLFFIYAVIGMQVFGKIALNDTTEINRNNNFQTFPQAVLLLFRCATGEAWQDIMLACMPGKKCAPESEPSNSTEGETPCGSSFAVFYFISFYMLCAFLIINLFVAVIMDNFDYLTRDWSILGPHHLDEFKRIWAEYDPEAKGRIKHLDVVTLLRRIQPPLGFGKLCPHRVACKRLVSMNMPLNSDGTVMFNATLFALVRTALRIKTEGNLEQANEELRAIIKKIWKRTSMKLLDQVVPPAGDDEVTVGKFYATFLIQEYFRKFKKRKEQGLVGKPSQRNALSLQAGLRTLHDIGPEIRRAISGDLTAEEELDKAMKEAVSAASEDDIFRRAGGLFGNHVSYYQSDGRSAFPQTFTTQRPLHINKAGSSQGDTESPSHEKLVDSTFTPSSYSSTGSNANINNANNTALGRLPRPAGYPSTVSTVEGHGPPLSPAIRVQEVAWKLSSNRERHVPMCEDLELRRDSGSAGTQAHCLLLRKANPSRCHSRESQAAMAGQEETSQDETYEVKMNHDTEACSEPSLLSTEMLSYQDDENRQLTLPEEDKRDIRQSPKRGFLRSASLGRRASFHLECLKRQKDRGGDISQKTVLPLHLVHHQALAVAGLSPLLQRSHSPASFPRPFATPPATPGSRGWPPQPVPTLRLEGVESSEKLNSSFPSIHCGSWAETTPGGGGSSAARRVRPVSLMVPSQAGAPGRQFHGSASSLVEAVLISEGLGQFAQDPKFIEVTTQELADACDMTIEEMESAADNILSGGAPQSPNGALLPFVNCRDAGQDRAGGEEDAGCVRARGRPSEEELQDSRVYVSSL
Experimental: (§2) The external solution contained (in mM): 140 TEA-Cl; 2 MgCl2; 10 CaCl2; 10 HEPES; and 5 D-glucose (pH=7.4). The internal solution contained (in mM): 120 CsCl; 1 MgCl2; 10 HEPES; 10 EGTA; 0.3 Na2-GTP; and 4 Mg-ATP (pH=7.2). Following establishment of the whole-cell configuration, CaV1.2 current was recorded at holding membrane potential of −80 mV and then depolarized to +10 mV (test pulse was modified slightly due to lead IV test) for 0.3 s. This protocol was repeated at 20 s intervals to observe the effect of the test compounds on the peak of CaV1.2 current. Each cell was incubated with each test compound for 5 min, or until the current reached steady-state. The compounds were applied at multiple concentrations from low to high. Each cell acted as its own control. The decreases in the peak currents were used to determine the IC50 for CaV1.2 inhibition. Curve-fitting and IC50 calculations were performed using IGOR software.

CaV1.2 channel = CaV1.2 channel (Homo sapiens, UniProt Q13936); test: cell-based
Chain of CaV1.2 channel (Q13936 whole entry): as above
Experimental: as §2

KCa2.3 = molecular target: T1, KCa2.3 (Homo sapiens, UniProt Q9UGI6); test: Potassium channels patch-clamp (QPatch), KCa2.3; format: cell-based; conditions: COS7 Human KCa2.3; read-out: KCa2.3
T1 construct: expressed in transfected cells; host or cells: COS7
T1 sequence (Q9UGI6 whole entry): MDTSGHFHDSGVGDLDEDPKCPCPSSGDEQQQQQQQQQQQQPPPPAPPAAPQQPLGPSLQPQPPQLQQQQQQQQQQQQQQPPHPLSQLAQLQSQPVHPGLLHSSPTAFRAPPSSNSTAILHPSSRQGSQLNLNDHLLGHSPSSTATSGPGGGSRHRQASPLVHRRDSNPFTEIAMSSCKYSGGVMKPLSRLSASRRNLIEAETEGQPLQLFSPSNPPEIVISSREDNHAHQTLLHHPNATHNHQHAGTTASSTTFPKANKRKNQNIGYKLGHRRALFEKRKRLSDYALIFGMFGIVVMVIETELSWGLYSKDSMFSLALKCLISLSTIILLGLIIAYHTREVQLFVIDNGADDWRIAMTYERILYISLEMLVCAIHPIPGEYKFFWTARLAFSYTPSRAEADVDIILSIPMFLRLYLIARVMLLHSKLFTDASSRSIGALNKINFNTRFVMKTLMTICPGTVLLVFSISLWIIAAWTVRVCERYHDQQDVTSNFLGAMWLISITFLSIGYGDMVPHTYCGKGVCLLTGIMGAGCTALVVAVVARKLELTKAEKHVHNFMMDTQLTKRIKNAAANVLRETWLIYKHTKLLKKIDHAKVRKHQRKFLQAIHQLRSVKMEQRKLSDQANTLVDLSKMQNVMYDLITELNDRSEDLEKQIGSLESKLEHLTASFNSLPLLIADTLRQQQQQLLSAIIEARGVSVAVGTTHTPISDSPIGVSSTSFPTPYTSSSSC
Experimental: (§1) The effects of Group 4 compounds on related potassium channels were evaluated by patch-clamp using a QPatch HTX automated electrophysiology platform (Sophion, Denmark). The giga-seal and whole-cell requirements for the automated electrophysiology were the following: minimum seal resistance=0.1 GO, holding potential=−80 mV, holding pressure=−20 mbar; and positioning pressure=−70 mbar.

KV1.3 = molecular target: T2, KV1.3 (Mus musculus, UniProt P16390); test: Potassium channels patch-clamp (QPatch), KV1.3; format: cell-based; conditions: L929 Mouse KV1.3; read-out: KV1.3
T2 construct: expressed in transfected cells; host or cells: L929
T2 sequence (P16390 whole entry): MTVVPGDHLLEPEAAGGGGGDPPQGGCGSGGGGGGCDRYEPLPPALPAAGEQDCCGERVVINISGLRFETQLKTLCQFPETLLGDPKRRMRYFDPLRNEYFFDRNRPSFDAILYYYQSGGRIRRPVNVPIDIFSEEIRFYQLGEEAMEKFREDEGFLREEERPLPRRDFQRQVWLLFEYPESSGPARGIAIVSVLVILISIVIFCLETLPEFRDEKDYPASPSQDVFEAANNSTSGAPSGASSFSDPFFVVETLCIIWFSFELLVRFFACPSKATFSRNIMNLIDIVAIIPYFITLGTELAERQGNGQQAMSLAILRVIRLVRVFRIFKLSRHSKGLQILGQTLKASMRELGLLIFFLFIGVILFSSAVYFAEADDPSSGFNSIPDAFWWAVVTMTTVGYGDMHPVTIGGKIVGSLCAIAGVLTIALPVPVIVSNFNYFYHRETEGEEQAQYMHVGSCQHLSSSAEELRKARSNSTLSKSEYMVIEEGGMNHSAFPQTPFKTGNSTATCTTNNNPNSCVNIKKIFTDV
Experimental: as §1

KV1.5 = molecular target: T3, KV1.5 (Homo sapiens, UniProt P22460); test: Potassium channels patch-clamp (QPatch), KV1.5; format: cell-based; conditions: MEL Human KV1.5; read-out: KV1.5
T3 construct: expressed in transfected cells; host or cells: MEL
Experimental: as §1

KV11.1 (hERG) = molecular target: T4, KV11.1 (hERG) (Homo sapiens, UniProt Q12809); test: Potassium channels patch-clamp (QPatch), KV11.1 (hERG); format: cell-based; conditions: CHO Human KV11.1; read-out: KV11.1 (hERG)
T4 construct: host or cells: CHO
T4 sequence (Q12809 whole entry): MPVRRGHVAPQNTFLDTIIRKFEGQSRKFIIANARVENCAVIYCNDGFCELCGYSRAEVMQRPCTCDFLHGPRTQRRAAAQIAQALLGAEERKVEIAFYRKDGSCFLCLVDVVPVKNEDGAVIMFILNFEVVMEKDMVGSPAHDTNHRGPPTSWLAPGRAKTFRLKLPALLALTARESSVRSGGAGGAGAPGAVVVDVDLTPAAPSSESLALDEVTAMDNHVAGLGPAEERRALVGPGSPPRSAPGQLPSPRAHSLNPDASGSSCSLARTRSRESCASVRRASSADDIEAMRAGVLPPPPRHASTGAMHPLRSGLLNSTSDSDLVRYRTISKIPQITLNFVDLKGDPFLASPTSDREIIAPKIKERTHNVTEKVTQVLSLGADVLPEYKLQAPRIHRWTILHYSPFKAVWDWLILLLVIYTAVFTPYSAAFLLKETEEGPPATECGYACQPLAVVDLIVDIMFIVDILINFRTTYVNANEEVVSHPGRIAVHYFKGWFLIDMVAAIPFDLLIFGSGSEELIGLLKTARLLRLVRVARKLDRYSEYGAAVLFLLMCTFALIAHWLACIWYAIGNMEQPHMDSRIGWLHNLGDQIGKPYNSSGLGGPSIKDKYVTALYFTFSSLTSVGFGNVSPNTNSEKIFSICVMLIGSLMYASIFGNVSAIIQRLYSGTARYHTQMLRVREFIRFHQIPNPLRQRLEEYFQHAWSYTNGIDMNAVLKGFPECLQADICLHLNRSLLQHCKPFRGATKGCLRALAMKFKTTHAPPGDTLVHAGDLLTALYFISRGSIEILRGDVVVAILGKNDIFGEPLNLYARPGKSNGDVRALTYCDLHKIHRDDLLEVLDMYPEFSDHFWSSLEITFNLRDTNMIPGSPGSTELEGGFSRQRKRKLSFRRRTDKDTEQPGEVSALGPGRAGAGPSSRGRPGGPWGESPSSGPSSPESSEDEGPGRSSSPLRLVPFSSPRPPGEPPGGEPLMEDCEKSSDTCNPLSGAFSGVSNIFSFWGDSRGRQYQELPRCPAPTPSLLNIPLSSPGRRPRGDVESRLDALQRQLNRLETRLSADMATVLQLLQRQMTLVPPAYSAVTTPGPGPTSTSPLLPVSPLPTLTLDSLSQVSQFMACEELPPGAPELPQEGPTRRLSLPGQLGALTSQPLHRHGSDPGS
Experimental: as §1

KCa1.1 = molecular target: T5, KCa1.1 (Homo sapiens, UniProt Q12791); test: Potassium channels patch-clamp (QPatch), KCa1.1; format: cell-based; conditions: HEK Human KCa1.1; read-out: KCa1.1
T5 construct: expressed in transfected cells; host or cells: HEK
Experimental: as §1

KCa2.2 = molecular target: T6, KCa2.2 (Rattus norvegicus, UniProt P70604); test: Potassium channels patch-clamp (QPatch), KCa2.2; format: cell-based; conditions: HEK Rat KCa2.2; read-out: KCa2.2
T6 construct: expressed in transfected cells; host or cells: HEK
Experimental: as §1

KV1.1 = molecular target: T7, KV1.1 (Mus musculus, UniProt P16388); test: Potassium channels patch-clamp (QPatch), KV1.1; format: cell-based; conditions: L929 Mouse KV1.1; read-out: KV1.1
T7 construct: expressed in transfected cells; host or cells: L929
Experimental: as §1

KV1.2 = molecular target: T8, KV1.2 (Rattus norvegicus, UniProt P63142); test: Potassium channels patch-clamp (QPatch), KV1.2; format: cell-based; conditions: B82 Rat KV1.2; read-out: KV1.2
T8 construct: expressed in transfected cells; host or cells: B82
Experimental: as §1

KV1.4 = molecular target: T9, KV1.4 (Homo sapiens, UniProt P22459); test: Potassium channels patch-clamp (QPatch), KV1.4; format: cell-based; conditions: LTK Human KV1.4; read-out: KV1.4
T9 construct: expressed in transfected cells; host or cells: LTK
Experimental: as §1

KV1.7 = molecular target: T10, KV1.7 (Homo sapiens, UniProt Q96RP8); test: Potassium channels patch-clamp (QPatch), KV1.7; format: cell-based; conditions: CHL Human KV1.7; read-out: KV1.7
T10 construct: expressed in transfected cells; host or cells: CHL
Experimental: as §1

KV3.1 = molecular target: T11, KV3.1 (Mus musculus, UniProt P15388); test: Potassium channels patch-clamp (QPatch), KV3.1; format: cell-based; conditions: L929 Mouse KV3.1; read-out: KV3.1
T11 construct: expressed in transfected cells; host or cells: L929
T11 sequence (P15388 1-511): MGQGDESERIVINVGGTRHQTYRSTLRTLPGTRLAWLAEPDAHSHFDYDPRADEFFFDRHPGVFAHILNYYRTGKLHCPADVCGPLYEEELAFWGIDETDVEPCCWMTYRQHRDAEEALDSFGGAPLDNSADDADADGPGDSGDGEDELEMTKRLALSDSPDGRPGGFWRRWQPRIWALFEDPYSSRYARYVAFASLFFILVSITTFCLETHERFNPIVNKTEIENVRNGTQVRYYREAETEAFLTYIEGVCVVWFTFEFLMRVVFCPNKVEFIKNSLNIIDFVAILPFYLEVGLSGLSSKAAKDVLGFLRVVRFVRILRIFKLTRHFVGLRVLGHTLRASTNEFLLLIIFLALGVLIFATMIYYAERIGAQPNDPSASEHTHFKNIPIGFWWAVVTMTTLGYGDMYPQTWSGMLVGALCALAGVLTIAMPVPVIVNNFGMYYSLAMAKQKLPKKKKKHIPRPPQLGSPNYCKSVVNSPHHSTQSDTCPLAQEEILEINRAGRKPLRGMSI
Experimental: as §1

KV4.2 = molecular target: T12, KV4.2 (Rattus norvegicus, UniProt Q63881); test: Potassium channels patch-clamp (QPatch), KV4.2; format: cell-based; conditions: LTK Rat KV4.2; read-out: KV4.2
T12 construct: expressed in transfected cells; host or cells: LTK
T12 sequence (Q63881 1-630): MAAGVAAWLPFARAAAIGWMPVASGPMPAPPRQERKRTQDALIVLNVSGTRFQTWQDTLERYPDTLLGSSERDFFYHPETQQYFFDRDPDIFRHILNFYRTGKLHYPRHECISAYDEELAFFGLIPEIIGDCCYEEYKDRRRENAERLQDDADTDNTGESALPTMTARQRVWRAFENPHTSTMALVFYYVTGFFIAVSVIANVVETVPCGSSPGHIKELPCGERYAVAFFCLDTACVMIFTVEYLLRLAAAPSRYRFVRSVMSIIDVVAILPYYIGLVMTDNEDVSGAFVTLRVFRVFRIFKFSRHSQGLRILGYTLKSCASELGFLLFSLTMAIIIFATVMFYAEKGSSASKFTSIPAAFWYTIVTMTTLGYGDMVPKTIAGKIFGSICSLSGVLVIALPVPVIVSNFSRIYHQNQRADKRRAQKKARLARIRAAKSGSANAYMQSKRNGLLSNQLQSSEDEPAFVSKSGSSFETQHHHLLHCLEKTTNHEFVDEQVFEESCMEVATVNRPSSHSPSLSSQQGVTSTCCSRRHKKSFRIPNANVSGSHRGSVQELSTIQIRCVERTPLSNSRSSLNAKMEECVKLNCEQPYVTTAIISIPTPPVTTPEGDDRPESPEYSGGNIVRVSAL
Experimental: as §1

[2] = IC50 (nM), block of KCa3.1, patch clamp (Table 2)
[3] = block of KCa3.1, patch clamp (Table 2), read-out: IC50

SMILES	IC50 (KCa3.1 channel; [2]) [nM]	IC50 (KCa3.1 channel; KCa3.1 IC50 (nM), Table 3) [nM]	selectivity ratio [1]	IC50 (CaV1.2 channel) [µM]	IC50 (KCa3.1 channel; KCa3.1, Table 5) [nM]	IC50 (KCa2.3) [µM]	IC50 (KV1.3) [µM]	IC50 (KV1.5) [µM]	IC50 (KV11.1 (hERG)) [µM]	IC50 (KCa3.1 channel; [3]) [nM]	other results
COC(=O)C1=C(C)NC(C)=C(C(C)=O)C1c1ccc(F)c(C(F)(F)F)c1 (stereo not shown) [Compound 57]	16.8 ± 0.9	16.8	89	1.5							
COCCOC(=O)C1=C(C)NC(C)=C(C(=O)OCCOC)C1c1cccc([N+](=O)[O-])c1 [Compound 06]	9880										
COC(=O)C1=CNC=C(C(=O)OC)C1c1cc(F)c(F)c(C(F)(F)F)c1 [Compound 110, Dimethyl 4-(3,4-difluoro-5-(trifluoromethyl)phenyl)-1,4-dihydropyridine-3,5-dicarboxylate]	6.9 ± 1.3	6.9	1320	9.1	6.9 ± 1.3	> 10	> 10	> 10	> 10		
COC(=O)C1=C(C)NC(C)=C(C(C)=O)C1c1cccc([N+](=O)[O-])c1 (stereo not shown) [Compound 79]	142 ± 7.6	142	14	2							
COC(=O)C1=CNC=C(C(=O)OC)C1c1cccc(C(F)(F)F)c1 [Compound 108, Dimethyl 4-(3-(trifluoromethyl)phenyl)-1,4-dihydropyridine-3,5-dicarboxylate]	18.5 ± 1.1	18.5	1190	22	18.5 ± 1.1	7	> 10	> 10	> 10		IC50 (KCa1.1): > 10 µM; IC50 (KCa2.2): > 10 µM; IC50 (KV1.1): > 10 µM; IC50 (KV1.2): > 10 µM; IC50 (KV1.4): > 10 µM; IC50 (KV1.7): > 10 µM; IC50 (KV3.1): > 10 µM; IC50 (KV4.2): > 10 µM
CCOC(=O)C1=C(C)NC(C)=C(C(=O)OC)C1c1cccc([N+](=O)[O-])c1 (stereo not shown) [Compound 08]										2300	IC50 (KCa3.1 channel; Table 3, read-out: KCa3.1 IC50): 2300 nM
COC(=O)C1=C(C)NC(C)=C(C(=O)OC)C1c1ccccc1[N+](=O)[O-] [Compound 07]										4000	IC50 (KCa3.1 channel; Table 3, read-out: KCa3.1 IC50): 4000 nM
COC(=O)C1=CNC(C)=C(C(=O)OC)C1c1ccc(F)c(C(F)(F)F)c1 (stereo not shown) [Compound 104, Dimethyl 4-(4-fluoro-3-(trifluoromethyl)phenyl)-2-methyl-1,4-dihydropyridine-3,5-dicarboxylate]		7.6	644	4.9	7.6 ± 1.7	8	> 10	> 10	> 10		IC50 (KCa1.1): > 10 µM; IC50 (KCa2.2): > 10 µM; IC50 (KV1.1): > 10 µM; IC50 (KV1.2): > 10 µM; IC50 (KV1.4): > 10 µM; IC50 (KV1.7): > 10 µM; IC50 (KV3.1): > 10 µM; IC50 (KV4.2): > 10 µM
COC(=O)C1=C(C)NC(C)=C(C(=O)OCCN2CCN(C(c3ccccc3)c3ccccc3)CC2)C1c1cccc([N+](=O)[O-])c1 (stereo not shown) [Compound 03]										> 10000	
COC(=O)C1=CNC=C(C(=O)OC)C1c1cc(F)cc(C(F)(F)F)c1 [Compound 109]	4.5 ± 0.2	4.5	2360	10.6	4.5 ± 0.2	> 10	> 10	> 10	> 10		
COC(=O)C1=CNC=C(C(=O)OC)C1c1ccc(Cl)c(C(F)(F)F)c1 [Compound 113, Dimethyl 4-(4-chloro-3-(trifluoromethyl)phenyl)-1,4-dihydropyridine-3,5-dicarboxylate]	5.7 ± 0.3	5.7	649	3.7	5.7 ± 0.3	> 10	> 10	> 10	> 10		
COC(=O)C1=C(C)NC(C)=C(C(=O)OC)C1c1ccc(Cl)c(C(F)(F)F)c1 [Compound 102]	7 ± 0.2	7	342	2.4							
COCCOC(=O)C1=C(C)NC(C)=C(C(=O)OC(C)C)C1c1cccc([N+](=O)[O-])c1 (stereo not shown) [Compound 04]										> 10000	
